We go through two molecules from patent US12030912B2, “Cationic steroidal antimicrobial compounds with urethane linkages” (Brigham Young University, priority 2020, dated 2024).

Converted amounts (≈) assume the structure as drawn. Read-outs that look alike come from different tables or passages of the source.

For assay [1], the system named is Pseudomonas aeruginosa (PA01 47085). The assay can be described thus: Minimum inhibitory concentration (MIC), antimicrobial activity. The assay is classed as cell-based. Particulars: Pathogen PA01 47085. Here is the method: (§1) The antimicrobial activity of CSA-255 was determined in comparison to CSA-44, a CSA compound known to have very high antimicrobial activity compared to other CSAs. The microbes used in the comparative test was were methicillin resistant Staphylococcus aureus (MRSA) BAA-41 and Pseudomonas aeruginosa (PA01 47085).

Assay [2] relates to methicillin resistant Staphylococcus aureus (MRSA) BAA-41. Described as above. Conditions: Pathogen MRSA BAA-41. The assay is classed as cell-based. Here is the method:
as §1

The term MIC denotes the least concentration at which growth counts as inhibited. Regarding `CCCCCCCCOC(=O)CC[C@@H](C)[C@H]1CC[C@H]2[C@@H]3[C@H](OC(=O)CCN)C[C@@H]4C[C@H](OC(=O)CCN)CC[C@]4(C)[C@H]3C[C@H](OC(=O)CCN)[C@]12C` [CSA-44], the MIC in assay [1] and in assay [2] was 2 µg/mL (≈ 2.72 µM) throughout.
Turning to `CCCCCCCCNC(=O)CC[C@@H](C)[C@H]1CC[C@H]2[C@@H]3[C@H](OC(=O)NCCN)C[C@@H]4C[C@H](OC(=O)NCCN)CC[C@]4(C)[C@H]3C[C@H](OC(=O)NCCN)[C@]12C` [CSA-255], the MIC in assay [1] (Pseudomonas aeruginosa, read-out: MIC) was found to be 2 µg/mL (≈ 2.57 µM); in assay [2] (Staphylococcus aureus, read-out: MIC) it was 4 µg/mL (≈ 5.14 µM).
